{
  "source": "patent US10266566B2",
  "about": "“Protease-resistant peptide ligands” (North Carolina State University, priority 2013, dated 2019)",
  "key": {"trypsin": {"test_system": "trypsin", "assay": "Resistance of peptide ligands to proteolytic digestion: IgG yield after contact with trypsin", "type": "in vitro ADME", "conditions": "for IgG Yield 3rd run (after trypsin): after α-chymotrypsin and then trypsin in Tris buffer pH 8.5; for resistance to trypsin (in words): loss of IgG binding capacity after enzyme treatment, FIG. 2", "experimental": "(§1) All resins (35 mg each) were packed in a 30 mm×2.1 mm I.D. Microbore column (0.1 mL) (Alltech-Applied Science, Somerset, Pa., USA) and swollen with 20% v/v methanol. After equilibration with PBS, pH 7.4, three IgG binding tests were performed using a 10 mg/mL solution of hIgG in PBS. Between each binding test, the resin was contacted with a 0.15 mg/mL solution of either trypsin or α-chymotrypsin in Tris HCl buffer, pH 8.5. The chromatographic protocol employed for all five injections was as follows. One hundred microliters of feed sample was loaded onto the column at a flow rate of 0.05 mL/min (87 cm/h). After a washing step with 2 mL of equilibration buffer at a flow rate of 0.2 mL/min (348 cm/h), elution was performed with 4 mL of 0.2M acetate buffer pH 4.0 at a flow rate of 0.4 mL/min (696 cm/h). Finally, the adsorbent was regenerated with 4 mL of 0.85% phosphoric acid. The adsorbents HWRGWV-, HYFKFD-, and HFRRHL-Toyopearl (SEQ ID NOS: 6, 16, 17) resins were used as controls. The effluent was monitored by absorbance at 280 nm.\n(§2) Based on the results reported in Table 2, the original sequences HWRGWV, HFRRHL, and HYFKFD (SEQ ID NOS: 1-3), and their variants HWMetCitGWMetV, HFMetCitCitHL, and HYMetFMetK(Met)2FMetD (SEQ ID NOS: 4, 5, 7) were tested for their resistance to enzymatic digestion. The sequences HWMetCitGWMetV (SEQ ID NO: 8), HFMetCitCitHL (SEQ ID NO: 5) were selected as the best variants of their respective original peptides, while HYMetFMetKMet2FMetD (SEQ ID NO: 7) was used as a negative control. […] Each adsorbent was subjected to five consecutive chromatographic runs. First, a solution of pure human polyclonal IgG at 10 mg/mL in PBS was injected to determine IgG yield for each adsorbent prior to contact with any enzyme. All four peptide variants gave a yield above 91% for this initial run. The resin was then contacted with a solution of α-chymotrypsin in Tris buffer pH 8.5 for 10 minutes. The amount of enzyme loaded onto the column was in a mass ratio of 1:100 peptide:enzyme, as done by Verdoliva et al.. After rinsing the resin, a second injection of IgG was then performed to estimate the loss of binding capacity due to the digestion of the peptide ligand by α-chymotrypsin. The resin was then contacted with the second enzyme solution, i.e., trypsin in Tris buffer pH 8.5, at the same peptide:enzyme ratio. A third IgG injection was finally performed to estimate the residual binding capacity of each resin after the second enzyme treatment."}, "α-chymotrypsin": {"molecular_target": "T1, α-chymotrypsin (Bos taurus, UniProt P00766)", "T1 construct": "purchased Sigma Aldrich", "assay": "Resistance of peptide ligands to proteolytic digestion: IgG yield after contact with α-chymotrypsin", "type": "in vitro ADME", "conditions": "for IgG Yield 2nd run (after α-chymotrypsin): after contact with α-chymotrypsin in Tris buffer pH 8.5 for 10 minutes; for resistance to α-chymotrypsin (in words): loss of IgG binding capacity after enzyme treatment, FIG. 2", "experimental": "as §1, §2"}, "human polyclonal IgG": {"test_system": "human polyclonal IgG", "assay": "Chromatographic IgG binding test of peptide-Toyopearl adsorbents with pure human polyclonal IgG", "conditions": "peptide on Toyopearl resin, approx. 0.12 meq/g, 0.1 mL column; ratio of IgG eluted to total IgG loaded", "experimental": "All resins (35 mg each) were packed in a 30 mm×2.1 mm I.D. Microbore column (0.1 mL) (Alltech-Applied Science, Somerset, Pa., USA) and swollen with 20% v/v methanol. After equilibration with PBS, pH 7.4, three IgG binding tests were performed using a 10 mg/mL solution of hIgG in PBS. Between each binding test, the resin was contacted with a 0.15 mg/mL solution of either trypsin or α-chymotrypsin in Tris HCl buffer, pH 8.5. The chromatographic protocol employed for all five injections was as follows. One hundred microliters of feed sample was loaded onto the column at a flow rate of 0.05 mL/min (87 cm/h). […] The effluent was monitored by absorbance at 280 nm.\nThe amount of IgG in the collected fractions was quantified by HPLC using 1 mL HiTrap Protein G column. The yield of IgG was calculated as the ratio of IgG eluted to total IgG loaded. The purity of IgG in the eluted fractions was determined by sodium dodecyl sulfate polyacrylamide gel electrophoresis (SDS-PAGE) under reducing conditions using NuPAGE® Novex 4-12% Bis-Tris gels in a Xcell SuperLock™ Mini-Cell system (LifeSciences, Carlsbad, Calif., USA). […] The IgG purity was determined by densitometric analysis of Coomassie-stained gels by means of ImageJ 1.32j software (National Institutes of Health, Bethesda, Md., USA). […]"}, "IgG": {"test_system": "IgG", "assay": "Purification of IgG (IVIG) from Cohn fraction II+III of human plasma, yield and purity", "type": "binding", "procedure": "Cohn fraction II+III was dissolved in PBS, pH 7.4 to obtain an approximate IgG concentration of 5 mg/mL and filtered sequentially using a 0.44 μm and a 0.22 μm filter from Pall Corporation (Port Washington, N.Y., USA). […] After equilibration with PBS buffer containing 0.25M NaCl, 100 μL of feed sample was loaded onto the column at a flow rate of 0.05 mL/min (87 cm/h). After washing the column with 2 mL of equilibration buffer at a flow rate of 0.2 mL/min (348 cm/h), elution was performed with 4 mL of 0.2M acetate buffer pH 5.0 at a flow rate of 0.4 mL/min (696 cm/h). Cleaning and regeneration were performed using 4 mL of 0.85% phosphoric acid followed by a wash with 4 mL of 2M urea in acetate buffer (pH 4.0). Toyopearl AF-rProtein A-650F resin was used as a positive control. As per manufacturer's instructions, the chromatographic protocol comprised binding with PBS, pH 7.4 (at a flow rate of 0.05 mL/min) and elution with 0.1M Glycine buffer pH 2.5 (at a flow rate of 0.4 mL/min). The effluent was monitored by absorbance at 280 nm. Fractions were collected and used for analysis of IgG purity and yield as described below.\nThe effect of conductivity of the binding buffer was studied at 0, 0.135 and 0.25 M NaCl added to PBS. After equilibration with binding buffer, 100 μL of feed was loaded onto the column at a flow rate of 0.05 mL/min (87 cm/h). Chromatographic protocol and fraction collection were done as above described.\nThe amount of IgG in the collected fractions was quantified by HPLC using 1 mL HiTrap Protein G column. The yield of IgG was calculated as the ratio of IgG eluted to total IgG loaded. The purity of IgG in the eluted fractions was determined by sodium dodecyl sulfate polyacrylamide gel electrophoresis (SDS-PAGE) under reducing conditions using NuPAGE® Novex 4-12% Bis-Tris gels in a Xcell SuperLock™ Mini-Cell system (LifeSciences, Carlsbad, Calif., USA). Sample preparation was done by adding 5 μL of NuPAGE® LDS buffer and 2 μL of NuPAGE® reducing agent to 13 μL of sample and boiling the resulting mixture for 10 min. Gels were Coomassie-stained by using SimpleBlue™ SafeStain. The IgG purity was determined by densitometric analysis of Coomassie-stained gels by means of ImageJ 1.32j software (National Institutes of Health, Bethesda, Md., USA).\nThe purity of the product was calculated as the fraction of the total area equivalent to the IgG bands at 25 and 50 KDa.\nThe original peptide ligands were employed as positive controls. The crude stock of Cohn II+III paste was diluted in PBS to prepare the feed sample and solid particles were removed by filtration prior to injection into the column. The chromatographic protocol adopted in this work was derived from previous optimizations and comprised the use of 0.25M NaCl in PBS as binding buffer and 0.2M acetate buffer pH 5.0 for elution [24]. Fractions were collected and analyzed by Protein G chromatography and SDS-PAGE (FIG. 3) to determine IgG yield and purity respectively.\nTo verify this hypothesis, binding studies were repeated using the above listed sequences and three binding buffers, comprising 0M, 0.13M, and 0.25M NaCl in PBS."}, "[1]": {"conditions": "0.13M NaCl in PBS binding buffer"}, "[2]": {"conditions": "0.25M NaCl in PBS binding buffer"}},
  "note": "Entries after “also recorded” stand apart in the source; their conditions may differ. Where a SMILES comes first, the peptide text is derived from it. Where no end group is shown, it is not given here. [ ]: non-standard residue; d: D form. The star is where a group is joined. Toyopearl = Toyopearl AF-Amino-650M resin to which the C-terminus is tethered; Trp(1-Me) = Cn1cc(C[C@H](N)C(=O)O)c2ccccc21; Phe(4-Me) = Cc1ccc(C[C@H](N)C(=O)O)cc1; Lys(Me2) = CN(C)CCCC[C@H](N)C(=O)O; Cit = NC(=O)NCCC[C@H](N)C(=O)O; For = O=C*",
  "data": [
    {"compound": "CC(C)[C@H](NC(=O)[C@H](Cc1c[nH]c2ccccc12)NC(=O)CNC(=O)[C@H](CCCNC(N)=O)NC(=O)[C@H](Cc1c[nH]c2ccccc12)NC(=O)[C@@H](N)Cc1c[nH]cn1)C(=O)O", "note": "[HWCitGWV] (H-HW[Cit]GWV-OH; N-terminus and C-terminus assumed)", "values": [
      {"measurement": "IgG Yield 3rd run (after trypsin)", "setting": "trypsin", "value": 71, "unit": "%"},
      {"measurement": "resistance to trypsin (in words)", "setting": "trypsin", "value": "resistance towards one enzyme only"},
      {"measurement": "IgG Yield 2nd run (after α-chymotrypsin)", "setting": "α-chymotrypsin", "value": 73, "unit": "%"}
    ]},
    {"compound": "Cc1ccc(C[C@H](NC(=O)[C@@H](N)Cc2c[nH]cn2)C(=O)N[C@@H](CCCNC(N)=O)C(=O)N[C@@H](CCCNC(N)=O)C(=O)N[C@@H](Cc2c[nH]cn2)C(=O)N[C@@H](CC(C)C)C(=O)O)cc1", "note": "[HFMetCitCitHL] (H-H[Phe(4-Me)][Cit][Cit]HL-OH; N-terminus and C-terminus assumed)", "values": [
      {"measurement": "IgG Yield 3rd run (after trypsin)", "setting": "trypsin", "value": 91, "unit": "%"},
      {"measurement": "IgG Yield 2nd run (after α-chymotrypsin)", "setting": "α-chymotrypsin", "value": 92, "unit": "%"}
    ]},
    {"compound": "HFRRHL [HFRRHL, reference compound]", "values": [
      {"measurement": "IgG Yield 3rd run (after trypsin)", "setting": "trypsin", "value": 54, "unit": "%"},
      {"measurement": "resistance to trypsin (in words)", "setting": "trypsin", "value": "good substrate for trypsin"},
      {"measurement": "IgG Yield 2nd run (after α-chymotrypsin)", "setting": "α-chymotrypsin", "value": 78, "unit": "%"}
    ]},
    {"compound": "CC(C)[C@H](NC(=O)[C@H](Cc1cn(C)c2ccccc12)NC(=O)CNC(=O)[C@H](CCCNC(N)=O)NC(=O)[C@H](Cc1cn(C)c2ccccc12)NC(=O)[C@@H](N)Cc1c[nH]cn1)C(=O)O", "note": "[HWMetCitGWMetV] (H-H[Trp(1-Me)][Cit]G[Trp(1-Me)]V-OH; N-terminus and C-terminus assumed)", "values": [
      {"measurement": "IgG Yield 3rd run (after trypsin)", "setting": "trypsin", "value": 90, "unit": "%"},
      {"measurement": "resistance to trypsin (in words)", "setting": "trypsin", "value": "completely unaffected by either"},
      {"measurement": "IgG Yield 2nd run (after α-chymotrypsin)", "setting": "α-chymotrypsin", "value": 91, "unit": "%"},
      {"measurement": "resistance to α-chymotrypsin (in words)", "setting": "α-chymotrypsin", "value": "completely unaffected by either"}
    ]},
    {"compound": "HFcarbCitCitHL: variant of HFRRHL designed using carbamoyl-phenylalanine and citrulline (HF[Cit][Cit]HL-Toyopearl; not fully specified (residue 2); printed as HFcarbCitCitHL)", "values": [
      {"measurement": "IgG Yield", "setting": "human polyclonal IgG", "value": 53, "unit": "%"}
    ]},
    {"compound": "CC(C)[C@H](NC(=O)[C@H](Cc1cn(C=O)c2ccccc12)NC(=O)CNC(=O)[C@H](CCCNC(N)=O)NC(=O)[C@H](Cc1cn(C=O)c2ccccc12)NC(=O)[C@@H](N)Cc1c[nH]cn1)C(=O)O", "note": "[HWForCitGWForV] (H-HW(For)[Cit]GW(For)V-OH; N-terminus and C-terminus assumed)", "values": [
      {"measurement": "IgG Yield 3rd run (after trypsin)", "setting": "trypsin", "value": 69, "unit": "%"},
      {"measurement": "IgG Yield 2nd run (after α-chymotrypsin)", "setting": "α-chymotrypsin", "value": 69, "unit": "%"}
    ]},
    {"compound": "Ac-HWRGWV: acetylated version of the original HWRGWV (not fully specified (C-terminus); printed as Ac-HWRGWV; also: TOYOPEARL at residue 6)", "values": [
      {"measurement": "IgG Purity", "setting": "IgG; 0M NaCl in PBS binding buffer", "value": 80, "unit": "%"},
      {"measurement": "IgG Yield", "setting": "IgG; 0M NaCl in PBS binding buffer", "value": 91, "unit": "%"},
      {"measurement": "IgG Purity", "setting": "IgG; [1]", "value": 80, "unit": "%"},
      {"measurement": "IgG Yield", "setting": "IgG; [1]", "value": 84, "unit": "%"},
      {"measurement": "IgG Purity", "setting": "IgG; [2]", "value": 84, "unit": "%"},
      {"measurement": "IgG Yield", "setting": "IgG; [2]", "value": 83, "unit": "%"}
    ]},
    {"compound": "HWMetCitDWMetV: variant created by replacing glycine with aspartic acid", "values": [
      {"measurement": "IgG Yield", "setting": "human polyclonal IgG", "value": 47, "unit": "%"}
    ]},
    {"compound": "HWRGWV [HWRGWV, reference compound]", "values": [
      {"measurement": "IgG Yield 3rd run (after trypsin)", "setting": "trypsin", "value": 36, "unit": "%"},
      {"measurement": "resistance to trypsin (in words)", "setting": "trypsin", "value": "degraded by both trypsin and α-chymotrypsin; also recorded: ideal substrate for trypsin"},
      {"measurement": "IgG Yield 2nd run (after α-chymotrypsin)", "setting": "α-chymotrypsin", "value": 72, "unit": "%"},
      {"measurement": "resistance to α-chymotrypsin (in words)", "setting": "α-chymotrypsin", "value": "degraded by both trypsin and α-chymotrypsin"}
    ]},
    {"compound": "Ac-HWMetCitGWMetV: acetylated version of the variant HWMetCitGWMetV (Ac-H[Trp(1-Me)][Cit]G[Trp(1-Me)]V; not fully specified (C-terminus))", "values": [
      {"measurement": "IgG Purity", "setting": "IgG; [2]", "value": 92, "unit": "%"},
      {"measurement": "IgG yield over the binding buffers", "setting": "IgG; over 0M, 0.13M, 0.25M NaCl binding buffers", "value": "above 90%"}
    ]},
    {"compound": "COc1ccc(C[C@H](NC(=O)[C@@H](N)Cc2c[nH]cn2)C(=O)N[C@@H](Cc2ccc(C)cc2)C(=O)N[C@@H](CCCCN(C)C)C(=O)N[C@@H](Cc2ccc(C)cc2)C(=O)N[C@@H](CC(=O)O)C(=O)O)cc1", "note": "[HYMetFMetKMet2FMetD] (H-HY(Me)[Phe(4-Me)][Lys(Me2)][Phe(4-Me)]D-OH; N-terminus and C-terminus assumed)", "values": [
      {"measurement": "IgG Yield 3rd run (after trypsin)", "setting": "trypsin", "value": 53, "unit": "%"},
      {"measurement": "resistance to trypsin (in words)", "setting": "trypsin", "value": "high resistance to proteolysis"},
      {"measurement": "IgG Yield 2nd run (after α-chymotrypsin)", "setting": "α-chymotrypsin", "value": 49, "unit": "%"},
      {"measurement": "resistance to α-chymotrypsin (in words)", "setting": "α-chymotrypsin", "value": "high resistance to proteolysis"}
    ]},
    {"compound": "HYFKFD [HYFKFD, reference compound]", "values": [
      {"measurement": "IgG Yield 3rd run (after trypsin)", "setting": "trypsin", "value": 71, "unit": "%"},
      {"measurement": "resistance to trypsin (in words)", "setting": "trypsin", "value": "almost immune to the attack of trypsin"},
      {"measurement": "IgG Yield 2nd run (after α-chymotrypsin)", "setting": "α-chymotrypsin", "value": 76, "unit": "%"}
    ]},
    {"compound": "CC(C)[C@H](NC(=O)[C@H](Cc1cn(C)c2ccccc12)NC(=O)CNC(=O)[C@H](CCCNC(=N)N)NC(=O)[C@H](Cc1cn(C)c2ccccc12)NC(=O)[C@@H](N)Cc1c[nH]cn1)C(=O)O", "note": "[HWMetRGWMetV] (H-H[Trp(1-Me)]RG[Trp(1-Me)]V-OH; N-terminus and C-terminus assumed)", "values": [
      {"measurement": "IgG Yield 3rd run (after trypsin)", "setting": "trypsin", "value": 82, "unit": "%"},
      {"measurement": "IgG Yield 2nd run (after α-chymotrypsin)", "setting": "α-chymotrypsin", "value": 91, "unit": "%"},
      {"measurement": "resistance to α-chymotrypsin (in words)", "setting": "α-chymotrypsin", "value": "resistance towards one enzyme only"}
    ]}
  ]
}
